Assay results published in PubChem BioAssay (NCI).
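GI50: concentration for 50% inhibition of growth. TGI: total growth inhibition.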

What was measured:
Experiment in all cases: DTP human tumour cell line panel, 384-well format
[1] = tested on: SN12C renal
[2] = tested on: SF-268 CNS
[3] = tested on: RPMI-8226 leukemia
[4] = tested on: HCC-2998 colon
[5] = tested on: MALME-3M melanoma
[6] = tested on: UACC-257 melanoma
[7] = tested on: 786-0 renal
[8] = tested on: UACC-62 melanoma
[9] = tested on: MOLT-4 leukemia
[10] = tested on: OVCAR-3 ovarian
[11] = tested on: SK-MEL-5 melanoma
[12] = tested on: PC-3 prostate
[13] = tested on: RXF 393 renal
[14] = tested on: HS 578T breast
[15] = tested on: NCI/ADR-RES ovarian
[16] = tested on: MDA-MB-468 breast
[17] = tested on: HCT-116 colon
[18] = tested on: NCI-H522 lung
[19] = tested on: IGROV1 ovarian
[20] = tested on: COLO 205 colon
[21] = tested on: MDA-MB-435 melanoma
[22] = tested on: LOX IMVI melanoma
[23] = tested on: MCF7 breast
[24] = tested on: SW-620 colon
[25] = tested on: OVCAR-4 ovarian
[26] = tested on: UO-31 renal
[27] = tested on: U251 glioblastoma
[28] = tested on: HOP-62 NSCLC
[29] = tested on: TK-10 renal
[30] = tested on: SF-539 CNS
[31] = tested on: NCI-H226 lung
[32] = tested on: SK-MEL-28 melanoma
[33] = tested on: SR leukemia
[34] = tested on: HL-60(TB) leukemia
[35] = tested on: T-47D breast
[36] = tested on: SK-OV-3 ovarian
[37] = tested on: A549 NSCLC
[38] = tested on: SNB-19 CNS
[39] = tested on: MDA-MB-231 breast
[40] = tested on: EKVX NSCLC
[41] = tested on: CCRF-CEM leukemia
[42] = tested on: NCI-H322M lung
[43] = tested on: ACHN renal
[44] = tested on: OVCAR-8 ovarian
[45] = tested on: CAKI-1 renal
[46] = tested on: DU-145 prostate
[47] = tested on: NCI-H23 lung
[48] = tested on: HT29 colon
[49] = tested on: BT-549 breast
[50] = tested on: SF-295 CNS
[51] = tested on: A498 renal
[52] = tested on: NCI-H460 NSCLC
[53] = tested on: SNB-75 CNS
[54] = tested on: M14 melanoma
[55] = tested on: HOP-92 NSCLC
[56] = tested on: K-562 leukemia

C[C@@H]1COCCN1c1cc(-c2ccnn2C)c2ccnc(-c3ccn[nH]3)c2n1
GI50 [1]: 273 nM
TGI [1]: 6650 nM
GI50 [2]: 97.4 nM
TGI [2]: 10500 nM
GI50 [3]: 17.4 nM
TGI [3]: 45.2 nM
GI50 [4]: < 10 nM
TGI [4]: 18 nM
GI50 [5]: 89.6 nM
TGI [5]: 985 nM
GI50 [6]: 1820 nM
TGI [6]: 14000 nM
GI50 [7]: 37.3 nM
TGI [7]: 191 nM
GI50 [8]: 176 nM
TGI [8]: 2140 nM
GI50 [9]: < 10 nM
TGI [9]: 15.5 nM
GI50 [10]: 91.1 nM
TGI [10]: 2620 nM
GI50 [11]: 202 nM
TGI [11]: 873 nM
GI50 [12]: 262 nM
TGI [12]: 11800 nM
GI50 [13]: 27.7 nM
TGI [13]: 105 nM
GI50 [14]: 16.7 nM
TGI [14]: 46.5 nM
GI50 [15]: 72 nM
TGI [15]: 270 nM
GI50 [16]: 192 nM
TGI [16]: 973 nM
GI50 [17]: 32.9 nM
TGI [17]: 7970 nM
GI50 [18]: 411 nM
TGI [18]: 10700 nM
GI50 [19]: 93.2 nM
TGI [19]: 2490 nM
GI50 [20]: 286 nM
TGI [20]: 2580 nM
GI50 [21]: 33 nM
TGI [21]: 456 nM
GI50 [22]: 98.4 nM
TGI [22]: 1090 nM
GI50 [23]: 18.8 nM
TGI [23]: 14200 nM
GI50 [24]: 247 nM
TGI [24]: 19300 nM
GI50 [25]: 39 nM
TGI [25]: 2720 nM
GI50 [26]: 58.6 nM
TGI [26]: 828 nM
GI50 [27]: 123 nM
TGI [27]: 11900 nM
GI50 [28]: 28 nM
TGI [28]: 155 nM
GI50 [29]: 28.7 nM
TGI [29]: 94.1 nM
GI50 [30]: 43.2 nM
TGI [30]: 259 nM
GI50 [31]: 341 nM
TGI [31]: 4020 nM
GI50 [32]: 1030 nM
TGI [32]: 13900 nM
GI50 [33]: < 10 nM
GI50 [34]: 26.8 nM
TGI [34]: 83.9 nM
GI50 [35]: 389 nM
TGI [35]: 8100 nM
GI50 [36]: 63.5 nM
TGI [36]: 539 nM
GI50 [37]: 104 nM
TGI [37]: 2230 nM
GI50 [38]: 282 nM
TGI [38]: 9470 nM
GI50 [39]: 353 nM
TGI [39]: > 100000 nM
GI50 [40]: 124 nM
TGI [40]: 2480 nM
GI50 [41]: < 10 nM
TGI [41]: 21.5 nM
GI50 [42]: 21.7 nM
TGI [42]: 213 nM
GI50 [43]: 49.8 nM
TGI [43]: 225 nM
GI50 [44]: 61.1 nM
TGI [44]: 357 nM
GI50 [45]: 142 nM
TGI [45]: 1800 nM
GI50 [46]: 53 nM
TGI [46]: 16300 nM
GI50 [47]: 16.2 nM
TGI [47]: 56.3 nM
GI50 [48]: 234 nM
TGI [48]: 706 nM
GI50 [49]: 22.2 nM
TGI [49]: 87.1 nM
GI50 [50]: 36.9 nM
TGI [50]: 173 nM
GI50 [51]: 19.3 nM
TGI [51]: 67.7 nM
GI50 [52]: 10.6 nM
TGI [52]: 515 nM
GI50 [53]: 264 nM
TGI [53]: 1760 nM
GI50 [54]: 13.2 nM
TGI [54]: 41.5 nM
GI50 [55]: 36.2 nM
TGI [55]: 339 nM
GI50 [56]: 40.4 nM
TGI [56]: 125 nM
